# Test results as given in patent publication US12391686B2, “Compounds and uses thereof” (Foghorn Therapeutics Inc., priority 2019, dated 2025).
# Biological target: T1, Nanoluciferase-BRD9 fusion protein (3×FLAG-NLuc-BRD9) in SYO-1 cells (Homo sapiens, UniProt Q9H8M2)
# T1 construct: expressed in transfected cells; host or cells: SYO-1
# T1 sequence (Q9H8M2 1-597): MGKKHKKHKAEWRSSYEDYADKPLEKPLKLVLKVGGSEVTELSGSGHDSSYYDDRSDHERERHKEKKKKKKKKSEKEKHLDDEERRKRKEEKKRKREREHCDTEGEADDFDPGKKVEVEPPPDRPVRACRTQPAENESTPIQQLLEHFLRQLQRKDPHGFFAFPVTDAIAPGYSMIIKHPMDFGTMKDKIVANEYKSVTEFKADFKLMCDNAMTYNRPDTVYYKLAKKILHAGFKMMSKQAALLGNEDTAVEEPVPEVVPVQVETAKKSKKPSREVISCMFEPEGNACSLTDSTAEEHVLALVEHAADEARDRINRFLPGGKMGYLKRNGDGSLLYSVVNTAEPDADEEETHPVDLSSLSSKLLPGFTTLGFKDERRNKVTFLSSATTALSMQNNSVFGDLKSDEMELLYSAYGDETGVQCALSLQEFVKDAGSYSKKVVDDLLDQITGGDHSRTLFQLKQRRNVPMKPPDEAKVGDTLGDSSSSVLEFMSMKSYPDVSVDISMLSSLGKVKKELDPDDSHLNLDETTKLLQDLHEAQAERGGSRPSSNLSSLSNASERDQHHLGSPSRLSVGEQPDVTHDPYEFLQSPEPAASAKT
# Assay: SYO1 BRD9 NanoLuc Degradation Assay
# Type: cell-based
# Details: Table 6B; SYO-1 cells expressing 3×FLAG-NLuc-BRD9, 6 hours incubation, 1 μM top dose; read-out: SYO1 BRD9-NanoLuc degradation IC50
# Outline: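 Stable 3×FLAG-NLuc-BRD9 SYO-1 line, 8000 cells/well, dosed day 1 with 10-point 3-fold dilutions (1 μM final top, duplicates) for 6 h. NanoLuc bioluminescence read with Nano-Glo; % inhibition relative to DMSO (high) and 1 μM reference BRD9 degrader (low) controls.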
row,DC50,Structure (SMILES)
1,100 to 1000 nM,COc1cc(-c2cn(C)c(=O)c3cnc(N(C)C)cc23)cc(OC)c1CN1CC2(CCC(N3Cc4cc5c(cc4C3)C(=O)N(C3CCC(=O)NC3=O)C5=O)CC2)C1 (stereo not shown) [Compound D64]
2,< 10 nM,COc1cc(-c2cn(C)c(=O)c3cnc(N(C)C)cc23)cc(OC)c1CN1CCC(C(=O)N2CCC3(CC2)CC(Oc2ccc4c(c2)C(=O)N(C2CCC(=O)NC2=O)C4=O)C3)C(OC)C1 (stereo not shown) [Compound D111]
3,< 10 nM,COc1cc(-c2cn(C)c(=O)c3cnc(N(C)C)cc23)cc(OC)c1CN1CCN([C@@H](C)COc2ccc3c(c2)C(=O)N(C2CCC(=O)NC2=O)C3=O)CC1 (stereo partly shown) [Compound D76]
4,< 10 nM,COc1cc(-c2cn(C)c(=O)c3cnc(N(C)C)cc23)cc(OC)c1CN1CCC(n2cc([C@H](C)Oc3ccc4c(c3)C(=O)N(C3CCC(=O)NC3=O)C4=O)nn2)CC1 (stereo partly shown) [Compound D87]
5,< 10 nM,COc1cc(-c2cn(C)c(=O)c3cnc(N(C)C)cc23)cc(OC)c1CN1CC(N2CCN(c3ccc4c(c3)C(=O)N(C3CCC(=O)NC3=O)C4=O)CC2)C1 (stereo not shown) [Compound D69]
6,< 10 nM,COc1cc(-c2cn(C)c(=O)c3cnc(N(C)C)cc23)cc(OC)c1CN1CCC(c2ccc3c(c2)C(=O)N(C2CCC(=O)NC2=O)C3=O)CC1 (stereo not shown) [Compound D104]
7,< 10 nM,COc1cc(-c2cn(C)c(=O)c3cnc(N(C)C)cc23)cc(OC)c1CN1CCC2(CCN(c3ccc4c(c3)C(=O)N(C3CCC(=O)NC3=O)C4=O)C2)C1 (stereo not shown) [Compound D90]
8,< 10 nM,COc1cc(-c2cn(C)c(=O)c3cnc(N(C)C)cc23)c(OC)cc1CN1CCN(CCC2CCN(c3ccc4c(c3)C(=O)N(C3CCC(=O)NC3=O)C4=O)CC2)CC1 (stereo not shown) [Compound D145]
9,< 10 nM,COc1cc(-c2cn(C)c(=O)c3cnc(N(C)C)cc23)cc(OC)c1CN1CCC(CN2CCC3(CC2)CC(Oc2ccc4c(c2)C(=O)N(C2CCC(=O)NC2=O)C4=O)C3)C(OC)C1 (stereo not shown) [Compound D130]
10,< 10 nM,COc1cc(-c2cn(C)c(=O)c3cnc(N(C)C)cc23)c2c(c1)N(CCCCCN1CCC3(CC1)CC(Oc1ccc4c(c1)C(=O)N(C1CCC(=O)NC1=O)C4=O)C3)CC2 (stereo not shown) [Compound D46]
11,< 10 nM,COc1cc(-c2cn(C)c(=O)c3cnc(N(C)C)cc23)cc(OC)c1CN1CCN(C2(COc3ccc4c(c3)C(=O)N(C3CCC(=O)NC3=O)C4=O)COC2)CC1 (stereo not shown) [Compound D95]
12,≥ 1000 nM,COc1cc(-c2cn(C)c(=O)c3ccc(N4CCC4)cc23)cc(OC)c1CN1CCC(C2CCN(c3ccc4c(c3)CN(C3CCC(=O)NC3=O)C4=O)CC2)CC1 (stereo not shown) [Compound D181]
13,< 10 nM,COc1cc(-c2cn(C)c(=O)c3cnc(N(C)C)cc23)cnc1CN1CCC(CCN2CCN(c3ccc4c(c3)C(=O)N(C3CCC(=O)NC3=O)C4=O)CC2)CC1 (stereo not shown) [Compound D48]
14,< 10 nM,COc1cc(-c2cn(C)c(=O)c3cnc(N4CCC4)cc23)cc(OC)c1CN1CCC2(CC1)CN(c1ccc3c(c1)C(=O)N(C1CCC(=O)NC1=O)C3=O)C2 (stereo not shown) [Compound D126]
15,< 10 nM,COc1cc(-c2cn(C)c(=O)c3cnc(N(C)C)cc23)cc(OC)c1CN1CCN(c2ccc3c(c2)C(=O)N(C2CCC(=O)NC2=O)C3)CC1 (stereo not shown) [Compound D113]
16,< 10 nM,COc1cc(-c2cn(C)c(=O)c3cnc(N(C)C)cc23)cc(OC)c1CN1CCN(CCC2CCN(c3ccc4c(c3)C(=O)N(C3CCC(=O)NC3=O)C4=O)CC2)CC1 (stereo not shown) [Compound D105]
17,< 10 nM,COc1cc(-c2cn(C)c(=O)c3cnc(N(C)C)cc23)cc(OC)c1CN1CCC2CN(c3ccc4c(c3)C(=O)N(C3CCC(=O)NC3=O)C4=O)C21 (stereo not shown) [Compound D92]
18,< 10 nM,COc1cc(-c2cn(C)c(=O)c3cnc(N(C)C)cc23)cc(OC)c1CN1CCC2(CC1)CC(N1CCN(c3ccc4c(c3)C(=O)N(C3CCC(=O)NC3=O)C4=O)CC1)C2 (stereo not shown) [Compound D56]
19,< 10 nM,COc1cc(-c2cn(C)c(=O)c3cnc(N(C)C)cc23)cc(OC)c1CN1CC(C(C)(C)N2CCC3(CC2)CN(c2ccc4c(c2)C(=O)N(C2CCC(=O)NC2=O)C4=O)C3)C1 (stereo not shown) [Compound D97]
20,< 10 nM,COc1cc(-c2cn(C)c(=O)c3cnc(N(C)C)cc23)cc(OC)c1CN1CCC2(CC1)CN(c1ccc3c(c1)C(=O)N(C1CCC(=O)NC1=O)C3)C2 (stereo not shown) [Compound D128]

# Same assay, conditions: Table 6C; SYO-1 cells expressing 3×FLAG-NLuc-BRD9, 6 hours incubation, 1 μM top dose; read-out: SYO1 BRD9-NanoLuc degradation IC50
row,Structure (SMILES),DC50
1,COc1cc(-c2cn(C)c(=O)c3cnc(N4CCC4)c(F)c23)cc(OC)c1CN1CC(CN2CCC3(CC2)CN(c2ccc4c(c2)C(=O)N(C2CCC(=O)NC2=O)C4)C3)C1 (stereo not shown) [Compound D221],< 10 nM
2,COc1cc(-c2cn(C)c(=O)c3cnc(C4CC4)cc23)cc(OC)c1CN1CCC2(CC1)CN(c1ccc3c(c1)C(=O)N(C1CCC(=O)NC1=O)C3=O)C2 (stereo not shown) [Compound D219],< 10 nM
3,COc1cc(-c2cn(C)c(=O)c3cnc(N4CCC4)cc23)cc(OC)c1CN1CCC(CN2CCC3(CC2)CN(c2ccc4c(c2)CN(C2CCC(=O)NC2=O)C4=O)C3)CC1 (stereo not shown) [Compound D218],< 10 nM
4,[2H]C([2H])([2H])Oc1cc2c(-c3cc(OC)c(CN4CCN(CCC5CCN(c6ccc7c(c6)C(=O)N(C6CCC(=O)NC6=O)C7)CC5)CC4)c(OC)c3)cn(C)c(=O)c2cn1 (stereo not shown) [Compound D198],< 10 nM
5,COc1cc(-c2cn(C)c(=O)c3cnc(C4CC4)cc23)cc(OC)c1CN1CC(CN2CCC3(CC2)CN(c2ccc4c(c2)C(=O)N(C2CCC(=O)NC2=O)C4)C3)C1 (stereo not shown) [Compound D193],< 10 nM
6,COc1cc(-c2cn(C)c(=O)c3cnc(N4CC[C@@H]4C)cc23)cc(OC)c1CN1CCC(CN2CCC3(CC2)CN(c2ccc4c(c2)C(=O)N(C2CCC(=O)NC2=O)C4)C3)CC1 (stereo partly shown) [Compound D207],< 10 nM
7,COc1cc(-c2cn(C)c(=O)c3cnc(N4CCOCC4)cc23)cc(OC)c1CN1CCC(CN2CCC3(CC2)CC(Oc2ccc4c(c2)C(=O)N(C2CCC(=O)NC2=O)C4)C3)CC1 (stereo not shown) [Compound D194],< 10 nM
8,COc1cc(-c2cn(C)c(=O)c3cnc(N4CC[C@H]4C)cc23)cc(OC)c1CN1CCC(CN2CCC3(CC2)CN(c2ccc4c(c2)C(=O)N(C2CCC(=O)NC2=O)C4)C3)CC1 (stereo partly shown) [Compound D208],< 10 nM
9,COc1cc(-c2cn(C)c(=O)c3cnc(N4CCC4)cc23)cc(OC)c1CN1CC(C(C)(C)N2CCC3(CC2)CN(c2ccc4c(c2)CN(C2CCC(=O)NC2=O)C4=O)C3)C1 (stereo not shown) [Compound D185],< 10 nM
10,COc1cc(-c2cn(C)c(=O)c3cnc(C(C)(C)CO)cc23)cc(OC)c1CN1CCC(CN2CCC3(CC2)CC(Oc2ccc4c(c2)C(=O)N(C2CCC(=O)NC2=O)C4)C3)CC1 (stereo not shown) [Compound D190],< 10 nM

# Further lines, results first:
row,DC50,Structure (SMILES)
1,< 10 nM,COc1cc(-c2cn(C)c(=O)c3cnc(N(C)C)cc23)cc(OC)c1CN1CC(N(C)c2ccc3c(c2)C(=O)N(C2CCC(=O)NC2=O)C3=O)C1 (stereo not shown) [Compound D268]
2,< 10 nM,[2H]C([2H])([2H])n1cc(-c2cc(OC)c(CN3CCN(CCC4CCN(c5ccc6c(c5)CN(C5CCC(=O)NC5=O)C6=O)CC4)CC3)c(OC)c2)c2cc(OC)ncc2c1=O (stereo not shown) [Compound D230]
3,< 10 nM,COc1cc(-c2cn(C)c(=O)c3cnc(C4(C)CC4)cc23)cc(OC)c1CN1CCC(CCN2CCN(c3ccc4c(c3)C(=O)N(C3CCC(=O)NC3=O)C4)CC2)CC1 (stereo not shown) [Compound D237]
4,< 10 nM,[2H]C([2H])([2H])n1cc(-c2cc(OC)c(CN3CCC4(CC3)CN(c3ccc5c(c3)C(=O)N(C3CCC(=O)NC3=O)C5)C4)c(OC)c2)c2cc(OC)ncc2c1=O (stereo not shown) [Compound D234]
5,< 10 nM,COc1cc(-c2cn(C)c(=O)c3cnc(N(C)C)cc23)cc(OC)c1C1CN(c2ccc3c(c2)C(=O)N(C2CCC(=O)NC2=O)C3)C1 (stereo not shown) [Compound D257]
6,100 to 1000 nM,COc1cc(-c2cn(C)c(=O)c3cnc(N(C)C)cc23)cc(OC)c1CN1CCC(N2CCN(C3CCC(=O)NC3=O)C(=O)C2)C1 (stereo not shown) [Compound D250]
7,< 10 nM,COc1cc(N(C)C2CCN(c3ccc4c(c3)C(=O)N(C3CCC(=O)NC3=O)C4)CC2)c(OC)cc1-c1cn(C)c(=O)c2cnc(N(C)C)cc12 (stereo not shown) [Compound D279]
8,< 10 nM,CN(C)c1cc2c(-c3ccc(N(C)C4CCN(c5ccc6c(c5)C(=O)N(C5CCC(=O)NC5=O)C6)CC4)cc3)cn(C)c(=O)c2cn1 (stereo not shown) [Compound D262]
9,< 10 nM,COc1cc(-c2cn(C)c(=O)c3cnc(C4CC4)cc23)cc(OC)c1CN1CCC(CN2CCC3(CC2)CC(Oc2ccc4c(c2)C(=O)N(C2CCC(=O)NC2=O)C4=O)C3)CC1 (stereo not shown) [Compound D301]
10,< 10 nM,[2H]C1CC(N2Cc3ccc(N4CCC(CCN5CCN(Cc6c(OC)cc(-c7cn(C)c(=O)c8cnc(N9CCC9)cc78)cc6OC)CC5)CC4)cc3C2=O)C(=O)NC1=O (stereo not shown) [Compound D244]
11,< 10 nM,COc1cc(-c2cn(C)c(=O)c3cc(F)ccc23)cc(OC)c1CN1CCC(CN2CCC3(CC2)CC(Oc2ccc4c(c2)C(=O)N(C2CCC(=O)NC2=O)C4)C3)CC1 (stereo not shown) [Compound D287]
12,< 10 nM,COc1cc2c(-c3cc(OC)c(CN4CCC(c5ccc6c(c5)C(=O)N(C5CCC(=O)NC5=O)C6)CC4)c(OC)c3)cn(C)c(=O)c2cn1 (stereo not shown) [Compound D288]
13,< 10 nM,COc1cc(-c2cn(C)c(=O)c3cnc(N(C)C)cc23)cc(OC)c1CN1CCC(CN2CCC3(CC2)CN(c2ccc4c(c2)C(=O)N(C2CCC(=O)NC2=O)C4)C3)C(F)(F)C1 (stereo not shown) [Compound D236]
